Assay results reported in BindingDB's records for doi:10.1007/pl00005315 (Eli Lilly, 1999).

What was measured:
[1] = molecular target: 5-hydroxytryptamine receptor 2B (Rattus norvegicus, UniProt P30994)
[2] = molecular target: 5-hydroxytryptamine receptor 2A (Homo sapiens, UniProt P28223)
[3] = molecular target: 5-hydroxytryptamine receptor 2B (Homo sapiens, UniProt P41595)
[4] = molecular target: T1, 5-hydroxytryptamine receptor 2C (Homo sapiens, UniProt P28335)
T1 sequence (P28335 whole entry): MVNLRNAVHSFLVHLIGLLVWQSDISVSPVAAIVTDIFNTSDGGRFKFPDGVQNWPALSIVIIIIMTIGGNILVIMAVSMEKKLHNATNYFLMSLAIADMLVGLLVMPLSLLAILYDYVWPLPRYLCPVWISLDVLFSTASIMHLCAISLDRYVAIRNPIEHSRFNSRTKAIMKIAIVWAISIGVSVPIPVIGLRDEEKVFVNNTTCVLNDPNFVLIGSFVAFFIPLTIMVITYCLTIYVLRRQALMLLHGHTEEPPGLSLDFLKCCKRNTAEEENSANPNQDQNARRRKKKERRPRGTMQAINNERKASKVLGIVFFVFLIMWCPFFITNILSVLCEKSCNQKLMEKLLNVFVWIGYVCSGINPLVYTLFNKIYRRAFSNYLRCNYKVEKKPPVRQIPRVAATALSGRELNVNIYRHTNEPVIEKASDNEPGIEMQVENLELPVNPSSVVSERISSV

Sequence of 5-hydroxytryptamine receptor 2B (Rattus norvegicus, UniProt P30994) (P30994 whole entry): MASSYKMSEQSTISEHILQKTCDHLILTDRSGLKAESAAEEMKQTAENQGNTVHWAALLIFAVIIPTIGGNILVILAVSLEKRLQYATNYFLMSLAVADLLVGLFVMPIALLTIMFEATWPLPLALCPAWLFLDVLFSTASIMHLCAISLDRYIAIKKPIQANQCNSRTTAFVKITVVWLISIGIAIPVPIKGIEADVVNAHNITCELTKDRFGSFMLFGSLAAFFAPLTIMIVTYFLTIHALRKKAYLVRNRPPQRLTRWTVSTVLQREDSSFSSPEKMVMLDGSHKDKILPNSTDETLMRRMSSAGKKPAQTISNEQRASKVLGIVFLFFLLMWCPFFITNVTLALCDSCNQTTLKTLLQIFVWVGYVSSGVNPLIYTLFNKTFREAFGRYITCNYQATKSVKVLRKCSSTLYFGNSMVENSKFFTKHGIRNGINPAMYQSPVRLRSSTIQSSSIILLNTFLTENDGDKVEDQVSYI
Sequence of 5-hydroxytryptamine receptor 2B (Homo sapiens, UniProt P41595) (P41595 whole entry): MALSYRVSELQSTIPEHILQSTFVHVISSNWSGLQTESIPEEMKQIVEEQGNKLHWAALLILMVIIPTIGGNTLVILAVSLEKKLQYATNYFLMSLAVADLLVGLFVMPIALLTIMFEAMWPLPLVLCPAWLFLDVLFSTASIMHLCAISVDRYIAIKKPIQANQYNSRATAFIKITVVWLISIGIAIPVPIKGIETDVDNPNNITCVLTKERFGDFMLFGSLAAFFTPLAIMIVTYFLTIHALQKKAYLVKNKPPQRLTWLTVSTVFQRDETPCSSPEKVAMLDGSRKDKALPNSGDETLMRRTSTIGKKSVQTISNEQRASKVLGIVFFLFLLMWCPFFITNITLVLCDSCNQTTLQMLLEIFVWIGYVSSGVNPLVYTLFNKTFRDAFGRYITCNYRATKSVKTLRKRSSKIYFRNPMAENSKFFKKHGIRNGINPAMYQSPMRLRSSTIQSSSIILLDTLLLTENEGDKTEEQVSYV
Sequence of 5-hydroxytryptamine receptor 2A (P28223 whole entry): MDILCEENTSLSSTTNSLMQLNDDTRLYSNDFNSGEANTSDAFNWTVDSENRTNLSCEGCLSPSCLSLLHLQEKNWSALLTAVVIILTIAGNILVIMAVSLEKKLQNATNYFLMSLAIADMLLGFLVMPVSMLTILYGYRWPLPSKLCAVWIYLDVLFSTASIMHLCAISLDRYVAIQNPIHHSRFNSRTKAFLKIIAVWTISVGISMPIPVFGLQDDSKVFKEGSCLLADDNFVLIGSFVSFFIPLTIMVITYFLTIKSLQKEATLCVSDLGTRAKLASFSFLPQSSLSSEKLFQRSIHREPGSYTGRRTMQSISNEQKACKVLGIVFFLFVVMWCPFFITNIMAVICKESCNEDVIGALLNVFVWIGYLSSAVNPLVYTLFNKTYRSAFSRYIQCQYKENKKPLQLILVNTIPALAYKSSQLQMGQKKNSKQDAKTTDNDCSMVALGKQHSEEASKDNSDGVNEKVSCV

COc1cc(CC(C)N)cc(OC)c1OC (configuration not stated)
Ki [1]: 187 nM | Ki [2]: 57.9 nM | Ki [3]: 307 nM

CCCNC(C)Cc1cc(OC)c(Br)cc1OC (configuration not stated)
Ki [1]: 976 nM | Ki [3]: 521 nM | Ki [4]: 514 nM

COc1cc(CC(C)N)c(OC)cc1F (configuration not stated)
Ki [1]: 306 nM | Ki [2]: 41.7 nM | Ki [3]: 227 nM | Ki [4]: 28.7 nM

COc1cc(CC(C)N)c(OC)cc1C#N (configuration not stated)
Ki [1]: 877 nM | Ki [2]: 45.7 nM | Ki [3]: 774 nM | Ki [4]: 1010 nM

COc1cc(CC(C)N)c(OC)cc1Cc1ccccc1 (configuration not stated)
Ki [1]: 53.8 nM | Ki [2]: 0.4 nM | Ki [3]: 35 nM | Ki [4]: 1 nM

COc1cc(C(C)=O)c(OC)cc1CC(C)N (configuration not stated) [1-(4-acetyl-2,5-dimethoxyphenyl)-2-aminopropane]
Ki [1]: 947 nM | Ki [2]: 80.5 nM | Ki [3]: 313 nM | Ki [4]: 91.3 nM

CCCc1cc(OC)c(CC(C)N)cc1OC (configuration not stated) [2-(2,5-Dimethoxy-4-propyl-phenyl)-1-methyl-ethylamine(DOPR)]
Ki [1]: 115 nM | Ki [2]: 0.9 nM | Ki [3]: 54.4 nM | Ki [4]: 1.1 nM

COc1ccc(OC)c(CC(C)N)c1 (configuration not stated) [2-(2,5-Dimethoxy-phenyl)-1-methyl-ethylamine]
Ki [3]: 1040 nM | Ki [4]: 104 nM

COc1cc(CC(C)N)c(OC)cc1Br (stereo not drawn) [2-(4-Bromo-2,5-dimethoxy-phenyl)-1-methyl-ethylamine((-)-DOB)]
Ki [3]: 26.9 nM

C[C@]12CC[C@H]3[C@@H](CCC4=CC(=O)CC[C@@]43C)[C@@H]1CC[C@@H]2C(=O)CO [(1S,2R,10S,11S,14S,15S)-14-(2-hydroxyacetyl)-2,15-dimethyltetracyclo[8.7.0.0^{2,7}.0^{11,15}]heptadec-6-en-5-one]
Ki [1]: 26.8 nM | Ki [2]: 1.4 nM | Ki [3]: 31.8 nM | Ki [4]: 2 nM

COCCOCCl [CAS_3970-21-6]
Ki [1]: 1130 nM | Ki [2]: 73 nM | Ki [3]: 763 nM | Ki [4]: 124 nM

CCCCCCc1cc(OC)c(CC(C)N)cc1OC (configuration not stated) [DOHx]
Ki [1]: 49 nM | Ki [2]: 0.1 nM | Ki [3]: 30.3 nM | Ki [4]: 0.7 nM

COc1cc([N+](=O)[O-])c(OC)cc1CC(C)N (configuration not stated) [DON]
Ki [1]: 248 nM | Ki [2]: 5.5 nM | Ki [3]: 166 nM | Ki [4]: 22.4 nM

COc1cc(C(C)(C)C)c(OC)cc1CC(C)N (configuration not stated) [DOTB]
Ki [1]: 49.6 nM | Ki [2]: 3.7 nM | Ki [3]: 24.6 nM | Ki [4]: 2.2 nM

COc1cc(CC(C)N(C)C)c(OC)cc1Br (configuration not stated) [M-154]
Ki [1]: 683 nM | Ki [2]: 94.2 nM | Ki [3]: 341 nM | Ki [4]: 68.1 nM

COc1cc(CC(C)[N+](C)(C)C)c(OC)cc1Br (configuration not stated) [N,N,N-trimethyl-1-(4-bromo-2,5-dimethoxyphenyl)-2-aminopropane]
Ki [1]: > 10000 nM | Ki [2]: 2150 nM | Ki [3]: > 10000 nM | Ki [4]: 6300 nM
